Experimental data from patent publication US20060069132A1, “Azolecarboxamide herbicides” (priority 2004, published 2006).

Columns and labels:
[1] = tested on: rice; assay: Test B pre-/postemergence herbicide test; assay type: in vivo, Oryza sativa
Method in brief: (§1)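 Pre: seeds sown, then sprayed. Post: 1–4-leaf plants (2–18 cm) sprayed at the same time. Paddy: flooded, treated at 2-leaf stage. Formulation: non-phytotoxic solvent with surfactant. Greenhouse 13–15 days; visual 0–100 score relative to controls.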

[2] = tested on: velvetleaf; assay: Test A pre-/postemergence herbicide test; assay type: in vivo, Abutilon theophrasti; settings: for Velvetleaf plant response rating: Preemergence
Method in brief: (§2)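 Both application timings were run together: directed soil spray over freshly planted seeds in sandy loam, and runoff spray onto 2–10 cm seedlings. Evaluation after ~10 days in greenhouse used a 0–100 visual scale versus untreated controls.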

[3] = tested on: morningglory; assay: Test A pre-/postemergence herbicide test; assay type: in vivo, Ipomoea spp.; settings: for Plant response rating, Morningglory: Postemergence; for Morningglory plant response rating: Preemergence
Method in brief: as §2

[4] = tested on: barnyardgrass; assay: Test B pre-/postemergence herbicide test; assay type: in vivo, Echinochloa crus-galli
Method in brief: (§3)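 Visual rating, 0 (no effect) to 100 (complete control), versus untreated controls after 13–15 d in greenhouse. Pre- and postemergence applications (postemergence plants 2–18 cm, 1–4 leaves); flooded paddy arm at 2-leaf stage. Compounds in non-phytotoxic solvent plus surfactant.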

[5] = tested on: lambsquarters; assay: Test B pre-/postemergence herbicide test; assay type: in vivo, Chenopodium album
Method in brief: as §1

[6] = tested on: giant foxtail; assay: Test A pre-/postemergence herbicide test; assay type: in vivo, Setaria faberi; settings: for Plant response rating, Foxtail, Giant: Postemergence; for Foxtail, Giant plant response rating: Preemergence
Method in brief: as §2

[7] = tested on: wild oat; assay: Test B postemergence herbicide test; assay type: in vivo, Avena fatua; settings: scale 0 (no effect) to 100 (complete control)
Method in brief: (§4)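 After treating 2-leaf paddy plants or 2–18 cm postemergence plants (1 to 4 leaves) with formulated chemical, researchers kept them in a greenhouse for 13–15 days. Effects were judged visually versus controls: 0 indicates none, 100 total control.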

[8] = tested on: velvetleaf; assay: Test B pre-/postemergence herbicide test; assay type: in vivo, Abutilon theophrasti
Method in brief: as §1

[9] = tested on: redroot pigweed; assay: Test A pre-/postemergence herbicide test; assay type: in vivo, Amaranthus retroflexus; settings: for Plant response rating, Pigweed: Postemergence; for Pigweed plant response rating: Preemergence
Method in brief: as §2

[10] = tested on: ducksalad; assay: Test B flooded paddy test; assay type: in vivo, Heteranthera limosa; settings: 1000 g ai/ha, visual rating, scale 0 to 100 (0 no effect, 100 complete control), 13 to 15 days
Method in brief: (§5)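 Visual ratings, 0 (no effect) to 100 (complete control), made versus controls after 13–15 d greenhouse. Paddy plants treated at 2-leaf stage; postemergence plants at 1- to 4-leaf stage, 2–18 cm tall.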

[11] = tested on: wheat; assay: Test B postemergence herbicide test; assay type: in vivo, Triticum aestivum; parameters: key to Wheat plant response rating: 0 = no effect, 100 = complete control; settings: scale 0 (no effect) to 100 (complete control)
Method in brief: as §4

[12] = tested on: small flower umbrella sedge; assay: Test B flooded paddy test; assay type: in vivo, Cyperus difformis; settings: 1000 g ai/ha, visual rating, scale 0 to 100 (0 no effect, 100 complete control), 13 to 15 days
Method in brief: as §5

[13] = tested on: cocklebur; assay: Test B pre-/postemergence herbicide test; assay type: in vivo, Xanthium strumarium
Method in brief: as §3

[14] = tested on: barnyardgrass; assay: Test A pre-/postemergence herbicide test; assay type: in vivo, Echinochloa crus-galli; settings: for Plant response rating, Barnyardgrass: Postemergence; for Barnyardgrass plant response rating: Preemergence
Method in brief: as §2

[15] = tested on: large crabgrass; assay: Test B pre-/postemergence herbicide test; assay type: in vivo, Digitaria sanguinalis
Method in brief: as §1

[16] = tested on: blackgrass; assay: Test B postemergence herbicide test; assay type: in vivo, Alopecurus myosuroides; settings: scale 0 (no effect) to 100 (complete control)
Method in brief: as §5

[17] = tested on: barnyardgrass; assay: Test B flooded paddy test; assay type: in vivo, Echinochloa crus-galli; settings: 1000 g ai/ha, visual rating, scale 0 to 100 (0 no effect, 100 complete control), 13 to 15 days
Method in brief: as §5

[18] = tested on: pigweed; assay: Test B pre-/postemergence herbicide test; assay type: in vivo, Amaranthus retroflexus
Method in brief: as §1

[19] = tested on: morningglory; assay: Test B pre-/postemergence herbicide test; assay type: in vivo, Ipomoea coccinea
Method in brief: as §3

[20] = tested on: corn; assay: Test B pre-/postemergence herbicide test; assay type: in vivo, Zea mays
Method in brief: as §1

[21] = tested on: Surinam grass; assay: Test B pre-/postemergence herbicide test; assay type: in vivo, Urochloa decumbens
Method in brief: as §1

[22] = tested on: large crabgrass; assay: Test A pre-/postemergence herbicide test; assay type: in vivo, Digitaria sanguinalis; settings: for Plant response rating, Crabgrass, Large: Postemergence; for Crabgrass, Large plant response rating: Preemergence
Method in brief: as §2

[23] = tested on: giant foxtail; assay: Test B pre-/postemergence herbicide test; assay type: in vivo, Setaria faberi
Method in brief: as §1

[24] = tested on: rice; assay: Test B flooded paddy test; assay type: in vivo, Oryza sativa; settings: 1000 g ai/ha, visual rating, scale 0 to 100 (0 no effect, 100 complete control), 13 to 15 days
Method in brief: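 Plants grow to 1- to 4-leaf stage (2–18 cm) for postemergence spraying, or to 2-leaf stage for the paddy test. Formulated compound is applied. Greenhouse holding lasts 13–15 days. Response is scored visually relative to controls, 0 no effect to 100 complete control; a dash means no result.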

[25] = Preemergence, 500 g ai/ha, scale 0 to 100
[26] = preemergence, 125 g ai/ha, 0 to 100 scale, 0 is no effect, 100 is complete control
[27] = 500 g ai/ha, visual rating, 0 to 100 scale (0 no effect, 100 complete control)
[28] = 2000 g ai/ha, 0 to 100 scale, 0 no effect, 100 complete control
[29] = 500 g ai/ha, 0 to 100 scale, 0 no effect, 100 complete control
[30] = Postemergence, 500 g ai/ha, visual rating after 13 to 15 days, scale 0 (no effect) to 100 (complete control)
[31] = postemergence, 125 g ai/ha, visual rating, scale 0 (no effect) to 100 (complete control)
[32] = Postemergence, 500 g ai/ha, visual rating after 13 to 15 days
[33] = postemergence, 125 g ai/ha, visual rating

CCN(CC)C(=O)c1cc(NC(=O)c2cc(C(C)(C)C)nn2CC)ccc1F [Compound 59]
Rice plant response rating [1, 25]: 0
Plant response rating, Rice [1, 26]: 0
Plant response rating, Velvetleaf ([2]; Postemergence, 2000 g ai/ha, 0 to 100 scale, 0 no effect, 100 complete control): 20
Velvetleaf plant response rating [2, 27]: 15
Velvetleaf plant response rating [2, 28]: 55
Plant response rating, Morningglory [3, 29]: 10
Plant response rating, Morningglory [3, 28]: 10
Morningglory plant response rating [3, 27]: 10
Morningglory plant response rating [3, 28]: 40
Plant response rating, Barnyardgrass [4, 30]: 20
Barnyardgrass plant response rating [4, 25]: 70
Barnyardgrass plant response rating [4, 31]: 0
Plant response rating, Barnyardgrass [4, 26]: 10
Plant response rating, Lambsquarters [5, 30]: 90
Lambsquarters plant response rating [5, 25]: 100
Lambsquarters plant response rating [5, 31]: 80
Plant response rating, Lambsquarters [5, 26]: 90
Plant response rating, Foxtail, Giant [6, 29]: 15
Plant response rating, Foxtail, Giant [6, 28]: 20
Foxtail, Giant plant response rating [6, 27]: 5
Foxtail, Giant plant response rating [6, 28]: 65
Plant response rating, Oat, Wild [7, 32]: 20
Oat, Wild plant response rating [7, 33]: 10
Plant response rating, Velvetleaf [8, 30]: 20
Velvetleaf plant response rating [8, 25]: 40
Velvetleaf plant response rating [8, 31]: 20
Plant response rating, Velvetleaf [8, 26]: 10
Plant response rating, Pigweed [9, 29]: 40
Plant response rating, Pigweed [9, 28]: 75
Pigweed plant response rating [9, 27]: 90
Pigweed plant response rating [9, 28]: 100
Ducksalad plant response rating [10]: 0
Plant response rating, Wheat [11, 32]: 10
Wheat plant response rating [11, 33]: 0
Sedge, Umbrella plant response rating [12]: 0
Plant response rating, Cocklebur [13, 30]: 40
Cocklebur plant response rating [13, 25]: 0
Cocklebur plant response rating [13, 31]: 10
Plant response rating, Cocklebur [13, 26]: 0
Plant response rating, Barnyardgrass [14, 29]: 20
Plant response rating, Barnyardgrass [14, 28]: 30
Barnyardgrass plant response rating [14, 27]: 25
Barnyardgrass plant response rating [14, 28]: 60
Plant response rating, Crabgrass, Large [15, 30]: 20
Crabgrass, Large plant response rating [15, 25]: 20
Crabgrass, Large plant response rating [15, 31]: 10
Plant response rating, Crabgrass, Large [15, 26]: 10
Plant response rating, Blackgrass [16, 32]: 0
Blackgrass plant response rating [16, 33]: 0
Barnyardgrass plant response rating [17]: 0
Plant response rating, Pigweed [18, 30]: 80
Pigweed plant response rating [18, 25]: 100
Pigweed plant response rating [18, 31]: 70
Plant response rating, Pigweed [18, 26]: 100
Plant response rating, Morningglory [19, 30]: 20
Morningglory plant response rating [19, 25]: 10
Morningglory plant response rating [19, 31]: 20
Plant response rating, Morningglory [19, 26]: 0
Plant response rating, Corn [20, 30]: 20
Corn plant response rating [20, 25]: 0
Corn plant response rating [20, 31]: 10
Plant response rating, Corn [20, 26]: 0
Plant response rating, Surinam Grass [21, 30]: 20
Surinam Grass plant response rating [21, 25]: 10
Surinam Grass plant response rating [21, 31]: 10
Plant response rating, Surinam Grass [21, 26]: 0
Plant response rating, Crabgrass, Large [22, 29]: 15
Plant response rating, Crabgrass, Large [22, 28]: 20
Crabgrass, Large plant response rating [22, 27]: 25
Crabgrass, Large plant response rating [22, 28]: 45
Plant response rating, Foxtail, Giant [23, 30]: 20
Foxtail, Giant plant response rating [23, 25]: 40
Foxtail, Giant plant response rating [23, 31]: 0
Plant response rating, Foxtail, Giant [23, 26]: 0
Rice plant response rating [24]: 0
